This is an account of results in ChEMBL document CHEMBL1201862, “PubChem BioAssay data set” (2004).

By IC50 is commonly meant the concentration that gives 50% inhibition. The AC50 is the midpoint of the concentration-response curve, whichever way the signal moves. The EC50 is the midpoint of the concentration-response curve.

Activity calls are given as the source filed them. A value given as a limit tells only on which side of the number the result lay.

Data set [1] has as its target T1, Rac GTPase-activating protein 1 (Homo sapiens, UniProt Q9H0H5).
T1 sequence (Q9H0H5 whole entry): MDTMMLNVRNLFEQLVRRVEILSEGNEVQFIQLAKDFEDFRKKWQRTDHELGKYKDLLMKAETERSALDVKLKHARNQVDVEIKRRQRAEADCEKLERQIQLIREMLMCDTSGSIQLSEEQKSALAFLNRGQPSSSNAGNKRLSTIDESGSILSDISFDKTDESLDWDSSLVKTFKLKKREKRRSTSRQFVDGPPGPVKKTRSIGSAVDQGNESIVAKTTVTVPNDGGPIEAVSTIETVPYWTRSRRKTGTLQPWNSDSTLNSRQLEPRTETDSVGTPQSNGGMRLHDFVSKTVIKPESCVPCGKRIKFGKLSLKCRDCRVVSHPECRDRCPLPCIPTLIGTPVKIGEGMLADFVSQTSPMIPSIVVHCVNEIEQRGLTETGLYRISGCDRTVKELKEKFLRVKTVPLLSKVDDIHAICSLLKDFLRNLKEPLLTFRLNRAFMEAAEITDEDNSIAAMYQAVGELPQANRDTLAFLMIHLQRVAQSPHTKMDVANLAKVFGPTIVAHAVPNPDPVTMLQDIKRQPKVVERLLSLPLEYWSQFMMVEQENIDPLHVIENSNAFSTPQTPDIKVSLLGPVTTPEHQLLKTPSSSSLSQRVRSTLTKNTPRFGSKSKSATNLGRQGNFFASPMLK
Description: MgcRacGAP GTPase-activating activity inhibitors, confirmation, biochemical, ADP Hunter fluorescence, primary and confirmatory (AID 624330). The format is functional.

The nature of data set [2]: Luminescence Cell-Based Dose Retest to Confirm Inhibitors of Cancer Stem Cells. [Related pubchem assays (depositor defined):AID2717, AID2721]. In kind it is functional. Conditions: Homo sapiens.
A further data set has as its target Cytochrome P450 3A4 (Homo sapiens, UniProt P08684).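 Further: CYP3A4 tested as one member of a cytochrome P450 panel screen.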
A short description of data set [3]: cytotoxicity toward NIH3T3 fibroblasts, dose response, counter-screen, cell-based, ATP luminescence, mouse fibroblasts (AID 2010).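 Further: cells exposed to compound for about 90 hours before reading.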 In kind it is functional. (In general: Counterscreens check selectivity or assay interference.)
A short description of data set [4]: inhibitors of intracellular T. cruzi replication, confirmation, NIH3T3 host cells, beta-gal luminescence (AID 2044).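 Further: intracellular parasites grown in NIH/3T3 mouse fibroblasts as host cells; luminescent beta-galactosidase reporter signal from transgenic T. cruzi replicating inside host cells; inhibitors lower the luminescence signal.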 In kind it is functional, cell-based.
A further data set has as its system H4. Put plainly: Luminescence Cell-Based Dose Response HTS to Identify Activators of 5'UTR Stem-Loop Driven Prion Protein mRNA Translation in H4 Neuroglioblastoma Cells. [Related pubchem assays: 1829 (Project Summary), 1814 (Primary HTS)]. In kind it is functional. Conditions: Homo sapiens.
Another data set deals with Cytochrome P450 2C19 (Homo sapiens, UniProt P33261). Description: Cytochrome panel assay with activity outcomes. Panel member name: p450-cyp2c19 Compounds with AC50 equal or less than 10 uM are considered active. In kind it is functional.
The next data set deals with T2, Protein RecA (Mycobacterium tuberculosis, UniProt P9WHJ3).
T2 sequence (P9WHJ3 whole entry): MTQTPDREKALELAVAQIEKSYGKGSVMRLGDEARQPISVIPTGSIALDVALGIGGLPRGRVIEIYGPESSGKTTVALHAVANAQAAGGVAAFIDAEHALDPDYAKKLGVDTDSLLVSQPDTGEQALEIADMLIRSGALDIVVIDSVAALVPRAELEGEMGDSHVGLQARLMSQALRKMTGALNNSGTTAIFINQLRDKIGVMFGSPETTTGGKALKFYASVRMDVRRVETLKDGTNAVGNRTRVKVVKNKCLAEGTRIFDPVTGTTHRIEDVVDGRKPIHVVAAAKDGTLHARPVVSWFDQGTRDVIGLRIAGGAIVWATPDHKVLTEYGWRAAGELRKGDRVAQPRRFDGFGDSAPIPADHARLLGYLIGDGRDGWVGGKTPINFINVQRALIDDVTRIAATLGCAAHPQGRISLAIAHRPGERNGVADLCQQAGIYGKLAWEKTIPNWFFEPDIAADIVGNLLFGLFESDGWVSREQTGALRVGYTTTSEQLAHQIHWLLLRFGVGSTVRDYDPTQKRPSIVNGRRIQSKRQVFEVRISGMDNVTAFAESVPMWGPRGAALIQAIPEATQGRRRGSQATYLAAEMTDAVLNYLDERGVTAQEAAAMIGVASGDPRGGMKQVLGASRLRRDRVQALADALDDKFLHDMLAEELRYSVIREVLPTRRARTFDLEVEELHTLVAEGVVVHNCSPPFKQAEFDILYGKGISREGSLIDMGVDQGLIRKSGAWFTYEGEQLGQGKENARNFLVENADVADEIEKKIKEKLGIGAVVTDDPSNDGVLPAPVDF
Description: Fluorescence Cell-Free Homogeneous Dose Retest to Identify Inhibitors of RecA-Intein Splicing Activity. [Related pubchem assays (depositor defined):AID2097, AID2223, AID489010, AID492950]. The format is functional.

Another data set concerns Streptococcus. Description: Group A Streptococcus viability loss, dose response, counter-screen for streptokinase expression inhibitor project, luminescence, BacTiterGlo (AID 1915).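 Further: potency for reduction of bacterial viability or growth.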 In kind it is functional, organism-based.
Data set [5] deals with Streptococcus sp. 'group A'. Put plainly: growth inhibition of control SK(-) GAS strain, dose response, counter-screen for streptokinase expression inhibitor project, luminescence, kanamycin, BacTiterGlo, confirmation (AID 1900). In kind it is functional, organism-based.

Chain of Cytochrome P450 2C19 (P33261 whole entry): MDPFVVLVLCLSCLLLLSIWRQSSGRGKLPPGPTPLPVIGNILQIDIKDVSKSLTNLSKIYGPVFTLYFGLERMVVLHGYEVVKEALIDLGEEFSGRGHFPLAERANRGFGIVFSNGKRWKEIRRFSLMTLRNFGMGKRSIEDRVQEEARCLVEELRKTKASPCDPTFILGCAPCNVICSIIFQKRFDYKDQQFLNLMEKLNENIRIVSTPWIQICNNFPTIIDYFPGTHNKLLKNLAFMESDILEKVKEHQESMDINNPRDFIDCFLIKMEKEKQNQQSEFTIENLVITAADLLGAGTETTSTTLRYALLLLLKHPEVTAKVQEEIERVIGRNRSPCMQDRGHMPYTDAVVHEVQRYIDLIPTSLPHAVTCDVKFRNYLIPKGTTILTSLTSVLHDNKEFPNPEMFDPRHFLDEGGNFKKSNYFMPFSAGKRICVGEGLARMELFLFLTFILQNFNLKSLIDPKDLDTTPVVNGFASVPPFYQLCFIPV
Chain of Cytochrome P450 3A4 (P08684 whole entry): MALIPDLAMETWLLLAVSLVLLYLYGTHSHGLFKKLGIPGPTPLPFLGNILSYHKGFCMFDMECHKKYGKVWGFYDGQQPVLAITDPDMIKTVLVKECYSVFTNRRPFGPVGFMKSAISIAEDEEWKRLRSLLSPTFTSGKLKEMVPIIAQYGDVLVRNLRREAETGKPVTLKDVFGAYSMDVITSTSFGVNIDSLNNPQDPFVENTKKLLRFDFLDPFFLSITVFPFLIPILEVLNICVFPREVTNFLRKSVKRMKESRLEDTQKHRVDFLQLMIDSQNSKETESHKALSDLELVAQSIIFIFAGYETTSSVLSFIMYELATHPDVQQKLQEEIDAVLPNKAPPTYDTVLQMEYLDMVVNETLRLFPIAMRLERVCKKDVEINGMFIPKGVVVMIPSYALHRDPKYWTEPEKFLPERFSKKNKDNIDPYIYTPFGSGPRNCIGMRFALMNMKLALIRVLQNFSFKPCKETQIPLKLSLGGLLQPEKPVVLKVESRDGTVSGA

Regarding `Oc1ccc(/C=C/c2nc3ccccc3nc2O)cc1`, the IC50 in data set [1] was 31.5 µM (active). On to `Cc1cccc(-c2nc(C#N)c(NC3CCCCC3)o2)c1`, for which the AC50 in data set [2] is 2.45 µM (active). With `CC[C@@H]1OC(=O)[C@H](C)[C@H](O[C@@H]2C[C@](C)(OC)[C@H](O)[C@H](C)O2)[C@H](C)[C@H](O[C@@H]2O[C@@H](C)C[C@@H](N(C)C)[C@@H]2O)[C@](C)(O)C[C@H](C)C(=O)[C@H](C)[C@H](O)[C@]1(C)O`, at Cytochrome P450 3A4, the AC50 is 12.6 µM (inconclusive).

For `COc1ccc(CCNC(=O)CN(c2ccccc2OC)S(=O)(=O)c2ccc(C)cc2)cc1`, the figures for the EC50 in data set [3] and in [4] were 19.3 µM (active) and 4.73 µM (active), respectively. Regarding `Cc1ccc(C)c(S(=O)(=O)N2CCN(C(=O)CCCc3c[nH]c4ccccc34)CC2)c1`, the results for the EC50 in data set [3] and in data set [4] were > 60 µM (not active) and 4.01 µM (active), respectively. For `CCCn1c(C)cc(C(=O)COc2ncnc3sccc23)c1C`, the EC50 in the data set with H4 is given as > 120 µM (not active). Consider `CCOC(=O)C1C(=O)C=C(c2ccc(NS(C)(=O)=O)cc2)CC1c1ccco1` (stereo not drawn), for which the AC50 at Cytochrome P450 3A4 was 25.1 µM (inconclusive). Turning to `c1ccc(OCCCN2CCCC2)cc1`, in [1], the IC50 is 159 µM (active). On to `CO[C@@]12C[C@@H](COC(=O)c3cncc(Br)c3)CN(C)[C@H]1Cc1cn(C)c3cccc2c13`, for which the AC50 on Cytochrome P450 2C19 (read-out: AC50) was 7.94 µM (inconclusive). Consider `COc1ccc(/C=C2\SC(=S)N(CCC(=O)N(CCO)Cc3ccccc3)C2=O)cc1OC`, for which the EC50 was > 60 µM (not active) in data set [3] and 3.32 µM (active) in data set [4].

With `C=C1C/C(=C\C)C(=O)O[C@@H]2CCN3CC=C(COC(=O)[C@@]1(C)O)[C@H]23`, the AC50 result on Cytochrome P450 2C19 is “inconclusive”; at Cytochrome P450 3A4, 12.6 µM (inconclusive). In the case of `CC(C)c1ccc(/C=C/C(=O)NC2=NCCS2)cc1`, the AC50 in [2] is 1.99 µM (active).

On to `CCCSc1nc2sc3c(c2c(=O)n1-c1ccc(OC)cc1)CCN(C)C3`, for which the figures for the EC50 in [3] and in [4] were > 30 µM (not active) and 0.12 µM (active), respectively.

For the compound `COCCNC(=O)C1CCN(S(=O)(=O)N2CCC3(CC2)OCCO3)CC1`, the AC50 at Cytochrome P450 2C19 (read-out: AC50) is 15.8 µM (inconclusive).

Regarding `O=C(CNCCO)N1CCc2ccccc21`, the AC50 at Cytochrome P450 3A4 was 1.41 µM (inconclusive).

Regarding `Cc1c(-c2ccccc2)sc(N)c1C(=O)N1CCOCC1`, the IC50 in data set [1] was 41.5 µM (active).

Regarding `COc1cc(OC)cc(C(=O)N2CCN(Cc3ccc4c(c3)OCO4)CC2)c1`, the IC50 in data set [1] is 188 µM (active).

With `COc1cccc(Nc2ncc3nc(-c4cc(F)cc(F)c4)c(=O)n(C[C@H]4CCCO4)c3n2)c1`, the AC50 on Cytochrome P450 3A4 was 6.31 µM (inconclusive). For `O=C(CN1CCN(S(=O)(=O)c2ccc(Br)cc2)CC1)Nc1ccccc1C(=O)c1ccccc1`, the EC50 in data set [3] was > 60 µM (not active); in data set [4] it was 1.08 µM (active). Consider `Cc1cccc(NC(=O)Nc2ccc3c(c2)OCO3)n1`, for which the EC50 in the data set on H4 is 9.72 µM (active). Regarding `CCCCc1ccc(NC(=O)CSc2nc(=O)n(CCN(CC)CC)c3c2CCC3)cc1`, in data set [2], the AC50 is 11.2 µM (active). Turning to `Nc1ccc2[nH]cc(CCC(=O)O)c2c1`, the AC50 result on Cytochrome P450 2C19 is “inconclusive”. As to `CC(=O)NCCNc1ccnc(-c2ccccc2C)n1`, the concentration at half-maximal activity (AC50) on Cytochrome P450 3A4 is 20 µM (inconclusive). For the compound `COc1cc(CCN2C(=O)c3cccc4cccc(c34)C2=O)c(S(=O)(=O)N2CCCCCC2)cc1OC`, the concentration for a half-maximal effect (EC50) was > 30 µM (not active) in data set [3] and 1.9 µM (active) in [4].

Regarding `N#CC1=C(Nc2ccccc2Cl)SC(c2ccccc2O)NC1=O` (stereo not drawn), the IC50 in [1] was 129 µM (active). On to `COCCCN=C(S)NC1CC2CCCC(C1)N2Cc1cccs1` (stereo not drawn), for which, on Cytochrome P450 2C19 (read-out: AC50), the AC50 was 1.26 µM (inconclusive).

Consider `COc1ccccc1CN1CCCC2(CCN(C(=O)c3csnn3)CC2)C1`, for which the AC50 at Cytochrome P450 3A4 is 15.8 µM (inconclusive). Regarding `Cc1sc(-n2c(C)cc(/C=C3\SC(=S)NC3=O)c2C)c(C#N)c1C`, the AC50 in [2] was 2.5 µM (active).

As for `C=CCN1C(=O)C(CC(=O)Nc2ccc(OCCC)cc2)N(CCCN2CCN(Cc3ccccc3)CC2)C1=S` (stereo not drawn), the EC50 in data set [3] was > 60 µM (not active); in data set [4], 3.01 µM (active).

For the compound `O=C(C1=C(O)C(=O)N(c2cccc(Cl)c2)C1c1ccccc1[N+](=O)[O-])c1ccccc1` (stereo not drawn), the AC50 at Cytochrome P450 3A4 was 12.6 µM (inconclusive). For the compound `O=C(NC1CONC1=O)OCC(Cl)(Cl)Cl` (stereo not drawn), the AC50 in data set [2] was > 195 µM (inactive).

In the case of `COc1ccccc1N=C(S)NNC(=O)c1c(Cl)c(C)nn1C`, the half-maximal activity concentration (AC50) result on Cytochrome P450 2C19 is on record as “inconclusive”.

For `O=C(c1cc(-c2ccncc2)nc2ccc(Br)cc12)N1CCN(Cc2ccc3c(c2)OCO3)CC1`, the EC50 in data set [3] was 54.9 µM (active); in data set [4] it was 0.384 µM (active). `O=C(Nc1ccccc1)c1ccc(N2CCN(c3ccccc3)CC2)c(S(=O)(=O)N2CCOCC2)c1`: the figures for the EC50 in [3] and in data set [4] were > 60 µM (not active) and 2.04 µM (active), respectively. In the case of `COc1cc(CNC(C)c2ccccc2)cc(Br)c1OCc1ccccc1` (stereo not drawn), the AC50 in data set [2] was 5.92 µM (active). Consider `CCOc1ccc2c(c1)-c1c(ssc1=S)C(C)(C)N2`, for which the EC50 at Protein RecA is 3.17 µM (active). As for `COc1ccc(CNc2ncc(-c3ccccc3)n2C)c(OC)c1OC`, in [1], the IC50 was 65.7 µM (active). On to `Cc1cnc(CNc2ccnc(-c3ccccc3C)n2)cn1`, for which the AC50 at Cytochrome P450 3A4 was 20 µM (inconclusive).

Consider `COc1cc(N=Nc2ccc(C)cc2S(N)(=O)=O)c(C)cc1N`, for which, in data set [1], the IC50 is 76.2 µM (active). The same measure, in the same setting: next, `Sc1nnc2sc3ccccc3n12`: 35.8 µM (active); `COc1ccc(NC2CCCN(C(=O)CCc3scnc3C)C2)cc1` (stereo not drawn): 96.1 µM (active).

Turning to `O=C(CN(Cc1ccccc1Cl)C(=O)c1ccc(CN2CCOCC2)o1)NCC1CCCO1` (stereo not drawn), at Cytochrome P450 2C19 (read-out: AC50), the concentration at half-maximal activity (AC50) is 10 µM (inconclusive).

Turning to `CCn1cc(C(=O)O)c(=O)c2cc(F)c(N3CCN(S(=O)(=O)c4ccc(NC(C)=O)cc4)CC3)cc21`, the EC50 with Streptococcus is 7.08 µM (active); in data set [5] it was 5.05 µM (active). As for `O=C(O)c1ccccc1C(=O)Nc1ccc(Nc2ccccc2)cc1`, in [1], the IC50 is 55.5 µM (active). Take `Cc1ccc(/C=N/Nc2cc(C)nc(NCc3ccccc3)n2)cc1`: the AC50 in data set [2] is 6.45 µM (active). For `Oc1ccccc1/C=N/NP(=S)(c1ccccc1)c1ccccc1`, the AC50 in data set [2] was 2.69 µM (active).

Turning to `O/N=C/c1ccnc(SCc2ccc(Cl)cc2)n1`, the AC50 in [2] is 3.58 µM (active).
